From PubChem BioAssay AID2060505 (Molecular Pharmacology Branch, DTP, NCI, 2025)

System: 633275-114-R-J1-PDC complex spheroids, viability
Assay: Anticancer human tumor 633275-114-R-J1-PDC patient-derived endometrial adenocarcinoma cell line growth inhibition [GQUAD]
Details: for IC50: curve of first compound; for viability, T/C: stronger effect = lower value
In short: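 Tumor cells were grown as complex spheroids with HUVEC endothelial cells and mesenchymal stem cells as stroma. G-quadruplex stabilizers were combined with targeted agents over half-log dilutions from near the clinical Cmax, or from 10 microM.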

[1] = second compound 0.0316 µM, first compound 0.0316 µM
[2] = second compound 0.0316 µM, first compound 0.1 µM
[3] = second compound 0.0316 µM, first compound 0.316 µM
[4] = second compound 0.0316 µM, first compound 1 µM
[5] = second compound 0.0316 µM, first compound 3.16 µM
[6] = second compound 0.0316 µM, first compound 10 µM
[7] = second compound 0.1 µM, first compound 0.0316 µM
[8] = second compound 0.1 µM, first compound 0.1 µM
[9] = second compound 0.1 µM, first compound 0.316 µM
[10] = second compound 0.1 µM, first compound 1 µM
[11] = second compound 0.1 µM, first compound 3.16 µM
[12] = second compound 0.1 µM, first compound 10 µM
[13] = second compound 0.316 µM, first compound 0.0316 µM
[14] = second compound 0.316 µM, first compound 0.1 µM
[15] = second compound 0.316 µM, first compound 0.316 µM
[16] = second compound 0.316 µM, first compound 1 µM
[17] = second compound 0.316 µM, first compound 3.16 µM
[18] = second compound 0.316 µM, first compound 10 µM
[19] = second compound 1 µM, first compound 0.0316 µM
[20] = second compound 1 µM, first compound 0.1 µM
[21] = second compound 1 µM, first compound 0.316 µM
[22] = second compound 1 µM, first compound 1 µM
[23] = second compound 1 µM, first compound 3.16 µM
[24] = second compound 1 µM, first compound 10 µM
[25] = second compound 3.16 µM, first compound 0.0316 µM
[26] = second compound 3.16 µM, first compound 0.1 µM
[27] = second compound 3.16 µM, first compound 0.316 µM
[28] = second compound 3.16 µM, first compound 1 µM
[29] = second compound 3.16 µM, first compound 3.16 µM
[30] = second compound 3.16 µM, first compound 10 µM
[31] = second compound 10 µM, first compound 0.0316 µM
[32] = second compound 10 µM, first compound 0.1 µM
[33] = second compound 10 µM, first compound 0.316 µM
[34] = second compound 10 µM, first compound 1 µM
[35] = second compound 10 µM, first compound 3.16 µM
[36] = second compound 10 µM, first compound 10 µM
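Further: spheroids exposed to the agents for seven days.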
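Wherever viability, T/C is given: percent of DMSO vehicle control viability which is 100%.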

Structure (SMILES): C#Cc1c(F)ccc2cc(O)cc(-c3ncc4c(N5CC6CCC(C5)N6)nc(OCC56CCCN5CC(F)C6)nc4c3F)c12 (stereo unspecified) + CN(C)c1ccc(Nc2c3ccc(NC(=O)CCN4CCCC4)cc3nc3cc(NC(=O)CCN4CCCC4)ccc23)cc1
- IC50 (second compound 0.0316 µM): > 10000 nM
- IC50 (second compound 0.1 µM): > 10000 nM
- IC50 (second compound 0.316 µM): > 10000 nM
- IC50 (second compound 1 µM): > 10000 nM
- IC50 (second compound 3.16 µM): 4360 nM
- IC50 (second compound 10 µM): < 31.6 nM
- viability, T/C [1]: 108%
- viability, T/C [2]: 90.5%
- viability, T/C [3]: 86.9%
- viability, T/C [4]: 91.9%
- viability, T/C [5]: 78%
- viability, T/C [6]: 66%
- viability, T/C [7]: 101%
- viability, T/C [8]: 97.8%
- viability, T/C [9]: 91.5%
- viability, T/C [10]: 96.7%
- viability, T/C [11]: 81.5%
- viability, T/C [12]: 65.3%
- viability, T/C [13]: 94.6%
- viability, T/C [14]: 101%
- viability, T/C [15]: 86.8%
- viability, T/C [16]: 82.3%
- viability, T/C [17]: 71.9%
- viability, T/C [18]: 68.1%
- viability, T/C [19]: 97.5%
- viability, T/C [20]: 96.5%
- viability, T/C [21]: 87.2%
- viability, T/C [22]: 85.9%
- viability, T/C [23]: 70.6%
- viability, T/C [24]: 54.9%
- viability, T/C [25]: 81.9%
- viability, T/C [26]: 86.3%
- viability, T/C [27]: 81.6%
- viability, T/C [28]: 66.3%
- viability, T/C [29]: 62%
- viability, T/C [30]: 28.1%
- viability, T/C [31]: 32.5%
- viability, T/C [32]: 29.2%
- viability, T/C [33]: 23.3%
- viability, T/C [34]: 23.6%
- viability, T/C [35]: 16.1%
- viability, T/C [36]: 5.22%

Structure (SMILES): CC(=O)O[C@H]1C(=O)[C@@]2(C)[C@H]([C@H](OC(=O)c3ccccc3)[C@]3(O)C[C@H](OC(=O)[C@H](O)[C@@H](NC(=O)c4ccccc4)c4ccccc4)C(C)=C1C3(C)C)[C@]1(OC(C)=O)CO[C@@H]1C[C@@H]2O + CN(C)c1ccc(Nc2c3ccc(NC(=O)CCN4CCCC4)cc3nc3cc(NC(=O)CCN4CCCC4)ccc23)cc1
- IC50 (second compound 0.0316 µM): < 31.6 nM
- IC50 (second compound 0.1 µM): < 31.6 nM
- IC50 (second compound 0.316 µM): < 31.6 nM
- IC50 (second compound 1 µM): < 31.6 nM
- IC50 (second compound 3.16 µM): < 31.6 nM
- IC50 (second compound 10 µM): < 31.6 nM
- viability, T/C [1]: 48.9%
- viability, T/C [2]: 26.1%
- viability, T/C [3]: 18.4%
- viability, T/C [4]: 22.6%
- viability, T/C [5]: 20.9%
- viability, T/C [6]: 22.7%
- viability, T/C [7]: 48.3%
- viability, T/C [8]: 27.3%
- viability, T/C [9]: 21.6%
- viability, T/C [10]: 18.9%
- viability, T/C [11]: 20.5%
- viability, T/C [12]: 23.5%
- viability, T/C [13]: 46.4%
- viability, T/C [14]: 23.6%
- viability, T/C [15]: 21.2%
- viability, T/C [16]: 19.1%
- viability, T/C [17]: 20.7%
- viability, T/C [18]: 20.4%
- viability, T/C [19]: 45.9%
- viability, T/C [20]: 25.5%
- viability, T/C [21]: 17.5%
- viability, T/C [22]: 18.8%
- viability, T/C [23]: 22.4%
- viability, T/C [24]: 20.8%
- viability, T/C [25]: 41.4%
- viability, T/C [26]: 22.8%
- viability, T/C [27]: 20.4%
- viability, T/C [28]: 21.3%
- viability, T/C [29]: 19.6%
- viability, T/C [30]: 19.8%
- viability, T/C [31]: 23.8%
- viability, T/C [32]: 15.3%
- viability, T/C [33]: 13.8%
- viability, T/C [34]: 11.8%
- viability, T/C [35]: 15.2%
- viability, T/C [36]: 12.9%

Structure (SMILES): CC(C)(O)C1CCC(Nc2ccc3ncc(-c4cccc(C(F)(F)F)c4)n3n2)CC1 (stereo unspecified) + CN(C)c1ccc(Nc2c3ccc(NC(=O)CCN4CCCC4)cc3nc3cc(NC(=O)CCN4CCCC4)ccc23)cc1
- IC50 (second compound 0.0316 µM): 1850 nM
- IC50 (second compound 0.1 µM): 1990 nM
- IC50 (second compound 0.316 µM): 2090 nM
- IC50 (second compound 1 µM): 1820 nM
- IC50 (second compound 3.16 µM): 1310 nM
- IC50 (second compound 10 µM): < 31.6 nM
- viability, T/C [1]: 102%
- viability, T/C [2]: 96.8%
- viability, T/C [3]: 90.1%
- viability, T/C [4]: 72.2%
- viability, T/C [5]: 28.8%
- viability, T/C [6]: 32.2%
- viability, T/C [7]: 94%
- viability, T/C [8]: 99.9%
- viability, T/C [9]: 88.2%
- viability, T/C [10]: 70.4%
- viability, T/C [11]: 32.8%
- viability, T/C [12]: 39.7%
- viability, T/C [13]: 97.6%
- viability, T/C [14]: 87.7%
- viability, T/C [15]: 92.6%
- viability, T/C [16]: 76.1%
- viability, T/C [17]: 32.7%
- viability, T/C [18]: 37.8%
- viability, T/C [19]: 94.6%
- viability, T/C [20]: 97.2%
- viability, T/C [21]: 88.3%
- viability, T/C [22]: 73%
- viability, T/C [23]: 27.8%
- viability, T/C [24]: 28.2%
- viability, T/C [25]: 85.4%
- viability, T/C [26]: 69.2%
- viability, T/C [27]: 81.9%
- viability, T/C [28]: 59.5%
- viability, T/C [29]: 19.1%
- viability, T/C [30]: 20.4%
- viability, T/C [31]: 33.1%
- viability, T/C [32]: 32.3%
- viability, T/C [33]: 23.7%
- viability, T/C [34]: 21.1%
- viability, T/C [35]: 7.71%
- viability, T/C [36]: 6.08%
